{"source": "patent US9149038B2", "about": "“4-amino-6-(heterocyclic)picolinates and 6-amino-2-(heterocyclic)pyrimidine-4-carboxylates and their use as herbicides” (Dow AgroSciences LLC, priority 2013, dated 2015)", "key": {"[1]": {"tested_on": "Key Broadleaf Weed and Crop Species", "test": "Post-Emergent Test II: postemergent herbicidal activity, visual rating after 14 d (Table 7)", "format": "in vivo", "details": "post-emergence, 336 h; for pest or weed control at 35 g/ha: 35 g ai/ha; for pest or weed control at 70 g/ha: 70 g ai/ha; for pest or weed control at 140 g/ha: 140 g ai/ha", "how_it_was_run": "(§1)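 Greenhouse-grown plants at the first or second true leaf stage (7-21 d, ~15 h photoperiod, 23-29° C day) were sprayed with compound in acetone/DMSO-based aqueous spray containing crop oil concentrate and Triton X-155 at 187 L/ha. Injury versus untreated plants was rated visually after 14 d on a 0-100 scale.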"}, "[2]": {"tested_on": "Key Grass and Sedge Weeds as well as Grass Crops", "test": "Post-Emergent Test II: postemergent herbicidal activity, visual rating after 14 d (Table 8)", "format": "in vivo", "details": "post-emergence, 336 h; for pest or weed control at 35 g/ha: 35 g ai/ha; for pest or weed control at 70 g/ha: 70 g ai/ha; for pest or weed control at 140 g/ha: 140 g ai/ha", "how_it_was_run": "as §1"}, "[3]": {"details": "lambsquarters (Chenopodium album), read-out: Visual Growth Reduction (%) 14 Days After Application CHEAL"}, "[4]": {"details": "oilseed rape, canola (Brassica napus), read-out: Visual Growth Reduction (%) 14 Days After Application BRSNN"}, "[5]": {"details": "redroot pigweed (Amaranthus retroflexus), read-out: Visual Growth Reduction (%) 14 Days After Application AMARE"}, "[6]": {"details": "sunflower (Helianthus annuus), read-out: Visual Growth Reduction (%) 14 Days After Application HELAN"}, "[7]": {"details": "velvetleaf (Abutilon theophrasti), read-out: Visual Growth Reduction (%) 14 Days After Application ABUTH"}, "[8]": {"details": "wild poinsettia (Euphorbia heterophylla), read-out: Visual Growth Reduction (%) 14 Days After Application EPHHL"}, "[9]": {"details": "barnyardgrass (Echinochloa crus-galli), read-out: Visual Growth Reduction (%) 14 Days After Application ECHCG"}, "[10]": {"details": "giant foxtail (Setaria faberi), read-out: Visual Growth Reduction (%) 14 Days After Application SETFA"}, "[11]": {"details": "maize, corn (Zea mays), read-out: Visual Growth Reduction (%) 14 Days After Application ZEAMX"}, "[12]": {"details": "rice (Oryza sativa), read-out: Visual Growth Reduction (%) 14 Days After Application ORYSA"}, "[13]": {"details": "wheat, spring (Triticum aestivum), read-out: Visual Growth Reduction (%) 14 Days After Application TRZAS"}, "[14]": {"details": "yellow nutsedge (Cyperus esculentus), read-out: Visual Growth Reduction (%) 14 Days After Application CYPES"}}, "note": "Where two headings read alike, the source gives them in different places."}
{"smiles": "Nc1nc(-c2ccc3c(c2F)OC(F)(F)O3)nc(C(=O)O)c1Cl", "note": "[Compound 59]", "values": [{"measurement": "pest or weed control at 35 g/ha", "setting": "[1]; [3]", "value": "75 to 84", "unit": "%"}, {"measurement": "pest or weed control at 70 g/ha", "setting": "[1]; [3]", "value": "85 to 94", "unit": "%"}, {"measurement": "pest or weed control at 140 g/ha", "setting": "[1]; [3]", "value": "85 to 94", "unit": "%"}, {"measurement": "pest or weed control at 35 g/ha", "setting": "[1]; [4]", "value": "60 to 74", "unit": "%"}, {"measurement": "pest or weed control at 70 g/ha", "setting": "[1]; [4]", "value": "85 to 94", "unit": "%"}, {"measurement": "pest or weed control at 140 g/ha", "setting": "[1]; [4]", "value": "85 to 94", "unit": "%"}, {"measurement": "pest or weed control at 35 g/ha", "setting": "[1]; [5]", "value": "45 to 59", "unit": "%"}, {"measurement": "pest or weed control at 70 g/ha", "setting": "[1]; [5]", "value": "85 to 94", "unit": "%"}, {"measurement": "pest or weed control at 140 g/ha", "setting": "[1]; [5]", "value": "95 to 100", "unit": "%"}, {"measurement": "pest or weed control at 35 g/ha", "setting": "[1]; [6]", "value": "60 to 74", "unit": "%"}, {"measurement": "pest or weed control at 70 g/ha", "setting": "[1]; [6]", "value": "75 to 84", "unit": "%"}, {"measurement": "pest or weed control at 140 g/ha", "setting": "[1]; [6]", "value": "75 to 84", "unit": "%"}, {"measurement": "pest or weed control at 35 g/ha", "setting": "[1]; [7]", "value": "0 to 29", "unit": "%"}, {"measurement": "pest or weed control at 70 g/ha", "setting": "[1]; [7]", "value": "0 to 29", "unit": "%"}, {"measurement": "pest or weed control at 140 g/ha", "setting": "[1]; [7]", "value": "60 to 74", "unit": "%"}, {"measurement": "pest or weed control at 35 g/ha", "setting": "[1]; [8]", "value": "95 to 100", "unit": "%"}, {"measurement": "pest or weed control at 70 g/ha", "setting": "[1]; [8]", "value": "95 to 100", "unit": "%"}, {"measurement": "pest or weed control at 140 g/ha", "setting": "[1]; [8]", "value": "95 to 100", "unit": "%"}, {"measurement": "pest or weed control at 35 g/ha", "setting": "[2]; [9]", "value": "75 to 84", "unit": "%"}, {"measurement": "pest or weed control at 70 g/ha", "setting": "[2]; [9]", "value": "75 to 84", "unit": "%"}, {"measurement": "pest or weed control at 35 g/ha", "setting": "[2]; [10]", "value": "45 to 59", "unit": "%"}, {"measurement": "pest or weed control at 70 g/ha", "setting": "[2]; [10]", "value": "60 to 74", "unit": "%"}, {"measurement": "pest or weed control at 140 g/ha", "setting": "[2]; [10]", "value": "60 to 74", "unit": "%"}, {"measurement": "pest or weed control at 35 g/ha", "setting": "[2]; [11]", "value": "60 to 74", "unit": "%"}, {"measurement": "pest or weed control at 70 g/ha", "setting": "[2]; [11]", "value": "60 to 74", "unit": "%"}, {"measurement": "pest or weed control at 140 g/ha", "setting": "[2]; [11]", "value": "60 to 74", "unit": "%"}, {"measurement": "pest or weed control at 35 g/ha", "setting": "[2]; [12]", "value": "0 to 29", "unit": "%"}, {"measurement": "pest or weed control at 70 g/ha", "setting": "[2]; [12]", "value": "0 to 29", "unit": "%"}, {"measurement": "pest or weed control at 140 g/ha", "setting": "[2]; [12]", "value": "0 to 29", "unit": "%"}, {"measurement": "pest or weed control at 35 g/ha", "setting": "[2]; [13]", "value": "0 to 29", "unit": "%"}, {"measurement": "pest or weed control at 70 g/ha", "setting": "[2]; [13]", "value": "0 to 29", "unit": "%"}, {"measurement": "pest or weed control at 140 g/ha", "setting": "[2]; [13]", "value": "0 to 29", "unit": "%"}, {"measurement": "pest or weed control at 35 g/ha", "setting": "[2]; [14]", "value": "0 to 29", "unit": "%"}, {"measurement": "pest or weed control at 70 g/ha", "setting": "[2]; [14]", "value": "0 to 29", "unit": "%"}, {"measurement": "pest or weed control at 140 g/ha", "setting": "[2]; [14]", "value": "85 to 94", "unit": "%"}]}
